Columns and labels:
Assay in all cases: Test D controlled growth environment herbicide test, pre- and postemergence
Assay type in all cases: in vivo
[1] = tested on: Russian thistle (Salsola kali)
How it was run: (§1)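 Species sown in silt loam and sprayed preemergence, or grown in peat-based medium to 2–18 cm (1- to 4-leaf stage) and sprayed postemergence, with compounds in non-phytotoxic solvent plus surfactant. Visual injury scored versus controls after 14–21 d in a controlled environment, 0 (no effect) to 100 (complete control).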

[2] = tested on: barley, spring (spring barley, Hordeum vulgare)
How it was run: as §1

[3] = tested on: chamomile (scentless chamomile, Matricaria inodora)
How it was run: as §1

[4] = tested on: chickweed (common chickweed, Stellaria media)
How it was run: as §1

[5] = tested on: deadnettle (henbit deadnettle, Lamium amplexicaule)
How it was run: as §1

[6] = tested on: field poppy (Papaver rhoeas)
How it was run: as §1

[7] = tested on: field violet (Viola arvensis)
How it was run: as §1

kochia (Kochia scoparia) = tested on: kochia (Kochia scoparia)
How it was run: as §1

[8] = tested on: mustard, wild (wild mustard, Sinapis arvensis)
How it was run: as §1

[9] = tested on: oat, wild (wild oat, Avena fatua)
How it was run: as §1

[10] = tested on: oilseed rape (Brassica napus)
How it was run: as §1

[11] = tested on: radish, wild (wild radish, Raphanus raphanistrum)
How it was run: as §1

[12] = tested on: speedwell (bird's-eye speedwell, Veronica persica)
How it was run: as §1

[13] = tested on: wheat, winter (winter wheat, Triticum aestivum)
How it was run: as §1

[14] = Postemergence, 31 g ai/ha, scale 0 to 100 (0 no effect, 100 complete control)
[15] = Postemergence, 125 g ai/ha, visual rating on scale 0 (no effect) to 100 (complete control), 14 to 21 d
[16] = Postemergence, 250 g ai/ha, scale 0 to 100 (0 no effect, 100 complete control)
[17] = Preemergence, 62 g ai/ha, scale 0 to 100 (0 no effect, 100 complete control)
[18] = Preemergence, 125 g ai/ha, scale 0 to 100 (0 no effect, 100 complete control)
[19] = Preemergence, 250 g ai/ha, scale 0 to 100, 0 no effect, 100 complete control
[20] = postemergence, 62 g ai/ha, scale 0 to 100, 0 no effect, 100 complete control

Cc1nn(C)c(=O)c(-c2ccc(F)c3ccccc23)c1O [Compound 41]
Russian Thistle plant response rating [1, 14]: 70 | Plant response rating, Russian Thistle [1, 15]: 75 | Plant response rating, Russian Thistle [1, 16]: 75 | Plant response rating (scale of 0 to 100), Russian Thistle ([1]; Preemergence, 31 g ai/ha): 25 | Plant response rating, Russian Thistle [1, 17]: 20 | Plant response rating, Russian Thistle [1, 18]: 40 | Plant response rating, Russian Thistle [1, 19]: 70 | Plant response rating, Russian Thistle [1, 20]: 70 | Plant response rating, Barley, Spring [2, 14]: 0 | Plant response rating, Barley, Spring [2, 15]: 10 | Plant response rating, Barley, Spring [2, 16]: 20 | Plant response rating (scale of 0 to 100), Barley, Spring ([2]; Preemergence, 31 g ai/ha): 0 | Plant response rating, Barley, Spring [2, 17]: 0 | Plant response rating, Barley, Spring [2, 18]: 30 | Barley, Spring plant response rating [2, 19]: 60 | Plant response rating, Barley, Spring [2, 20]: 5 | Chamomile plant response rating [3, 14]: 75 | Plant response rating, Chamomile [3, 15]: 80 | Plant response rating, Chamomile [3, 16]: 100 | Plant response rating, Chamomile [3, 20]: 75 | Chickweed plant response rating [4, 14]: 98 | Plant response rating, Chickweed [4, 15]: 95 | Plant response rating, Chickweed [4, 16]: 100 | Plant response rating (scale of 0 to 100), Chickweed ([4]; Preemergence, 31 g ai/ha): 90 | Plant response rating, Chickweed [4, 17]: 95 | Plant response rating, Chickweed [4, 18]: 95 | Plant response rating, Chickweed [4, 19]: 95 | Plant response rating, Chickweed [4, 20]: 98 | Deadnettle plant response rating [5, 14]: 85 | Plant response rating, Deadnettle [5, 15]: 80 | Plant response rating, Deadnettle [5, 16]: 100 | Plant response rating (scale of 0 to 100), Deadnettle ([5]; Preemergence, 31 g ai/ha): 35 | Plant response rating, Deadnettle [5, 17]: 90 | Plant response rating, Deadnettle [5, 18]: 100 | Plant response rating, Deadnettle [5, 19]: 100 | Plant response rating, Deadnettle [5, 20]: 100 | Field Poppy plant response rating [6, 14]: 55 | Plant response rating, Field Poppy [6, 15]: 75 | Plant response rating, Field Poppy [6, 16]: 95 | Plant response rating (scale of 0 to 100), Field Poppy ([6]; Preemergence, 31 g ai/ha): 95 | Plant response rating, Field Poppy [6, 17]: 95 | Plant response rating, Field Poppy [6, 19]: 95 | Plant response rating, Field Poppy [6, 20]: 80 | Field Violet plant response rating [7, 14]: 100 | Plant response rating, Field Violet [7, 15]: 90 | Plant response rating, Field Violet [7, 16]: 100 | Plant response rating (scale of 0 to 100), Field Violet ([7]; Preemergence, 31 g ai/ha): 95 | Plant response rating, Field Violet [7, 17]: 90 | Plant response rating, Field Violet [7, 18]: 100 | Plant response rating, Field Violet [7, 19]: 100 | Plant response rating, Field Violet [7, 20]: 90 | Kochia plant response rating (kochia (Kochia scoparia); [14]): 85 | Plant response rating, Kochia (kochia (Kochia scoparia); [15]): 85 | Plant response rating, Kochia (kochia (Kochia scoparia); [16]): 100 | Plant response rating (scale of 0 to 100), Kochia (kochia (Kochia scoparia); Preemergence, 31 g ai/ha): 80 | Plant response rating, Kochia (kochia (Kochia scoparia); [17]): 75 | Plant response rating, Kochia (kochia (Kochia scoparia); [18]): 80 | Plant response rating, Kochia (kochia (Kochia scoparia); [19]): 100 | Plant response rating, Kochia (kochia (Kochia scoparia); [20]): 95 | Mustard, Wild plant response rating [8, 14]: 90 | Plant response rating, Mustard, Wild [8, 15]: 100 | Plant response rating, Mustard, Wild [8, 16]: 100 | Plant response rating (scale of 0 to 100), Mustard, Wild ([8]; Preemergence, 31 g ai/ha): 70 | Plant response rating, Mustard, Wild [8, 17]: 90 | Plant response rating, Mustard, Wild [8, 18]: 95 | Plant response rating, Mustard, Wild [8, 19]: 95 | Plant response rating, Mustard, Wild [8, 20]: 100 | Oat, Wild plant response rating [9, 14]: 70 | Plant response rating, Oat, Wild [9, 15]: 85 | Plant response rating, Oat, Wild [9, 16]: 85 | Plant response rating (scale of 0 to 100), Oat, Wild ([9]; Preemergence, 31 g ai/ha): 85 | Plant response rating, Oat, Wild [9, 17]: 90 | Plant response rating, Oat, Wild [9, 18]: 90 | Plant response rating, Oat, Wild [9, 19]: 95 | Plant response rating, Oat, Wild [9, 20]: 80 | Oilseed Rape plant response rating [10, 14]: 0 | Plant response rating, Oilseed Rape [10, 15]: 25 | Plant response rating, Oilseed Rape [10, 16]: 55 | Plant response rating (scale of 0 to 100), Oilseed Rape ([10]; Preemergence, 31 g ai/ha): 0 | Plant response rating, Oilseed Rape [10, 17]: 5 | Plant response rating, Oilseed Rape [10, 18]: 25 | Plant response rating, Oilseed Rape [10, 19]: 15 | Plant response rating, Oilseed Rape [10, 20]: 5 | Radish, Wild plant response rating [11, 14]: 90 | Plant response rating, Radish, Wild [11, 15]: 90 | Plant response rating, Radish, Wild [11, 16]: 95 | Plant response rating (scale of 0 to 100), Radish, Wild ([11]; Preemergence, 31 g ai/ha): 25 | Plant response rating, Radish, Wild [11, 17]: 85 | Plant response rating, Radish, Wild [11, 18]: 95 | Plant response rating, Radish, Wild [11, 19]: 100 | Plant response rating, Radish, Wild [11, 20]: 80 | Speedwell plant response rating [12, 14]: 100 | Plant response rating, Speedwell [12, 15]: 100 | Plant response rating, Speedwell [12, 16]: 100 | Plant response rating (scale of 0 to 100), Speedwell ([12]; Preemergence, 31 g ai/ha): 100 | Plant response rating, Speedwell [12, 17]: 95 | Plant response rating, Speedwell [12, 18]: 100 | Plant response rating, Speedwell [12, 19]: 100 | Plant response rating, Speedwell [12, 20]: 100 | Wheat, Winter plant response rating [13, 14]: 10 | Plant response rating, Wheat, Winter [13, 15]: 25 | Plant response rating, Wheat, Winter [13, 16]: 35 | Plant response rating (scale of 0 to 100), Wheat, Winter ([13]; Preemergence, 31 g ai/ha): 10 | Plant response rating, Wheat, Winter [13, 17]: 20 | Plant response rating, Wheat, Winter [13, 18]: 45 | Plant response rating, Wheat, Winter [13, 19]: 75 | Plant response rating, Wheat, Winter [13, 20]: 20

Reference: patent US10597388B2, “Pyridazinone herbicides” (FMC CORPORATION, priority 2014, dated 2020)
